{"source": "patent US11939290B2", "about": "“Heterocycle-containing amino acid compound and salt thereof, complex, composition, fertilizer and plant growth regulator” (TOKUSHIMA UNIVERSITY, priority 2018, dated 2024)", "assay": "Stability test in acidic aqueous solution (1H NMR residual rate)", "format": "physicochemical", "conditions": "for residual rate, lapsed day 0 / residual rate, lapsed day 10 / residual rate, lapsed day 20 / residual rate, lapsed day 27: acidic aqueous solution in heavy water; for residual rate, lapsed day 0: pH 2.0, 0 day (immediately after preparation); for residual rate, lapsed day 10 / residual rate, lapsed day 20 / residual rate, lapsed day 27: pH 2.0, stored at 25° C. sealed, protected from light; for residual rate, lapsed day 10: 10 days; for residual rate, lapsed day 20: 20 days; for residual rate, lapsed day 27 / stability in an acidic aqueous solution compared with derivatives (X), (X′) and (Y): 27 days; for stability in an acidic aqueous solution compared with derivatives (X), (X′) and (Y): acidic aqueous solution pH 2, 25° C.", "protocol": "In this stability test, whether acidic aqueous solutions prepared using the derivatives (X), (X′) and (Y), and 2′-deoxymugineic acid (DMA) and a compound having the following structure (hereinafter, referred to as “PDMA”) were stable along with the lapse of time, i.e., whether the derivatives were difficult to decompose was evaluated.\nThe following test solutions (a), (b) and (c) were prepared using the derivatives (X), (X′) and (Y). Also, the following test solutions (d) and (e) were prepared using DMA and PDMA. The test solution (a) was prepared by dissolving 3 μmol of the substance in 0.5 mL of heavy water. Other test solutions were prepared by dissolving 0.03 mmol of the substance in 0.5 mL of heavy water. The pH of the test solution was 2. • Test solution (a) for Test Example 1: acidic aqueous solution of the derivative (X) • Test solution (b) for Test Example 2: acidic aqueous solution of the derivative (X′) • Test solution (c) for Test Example 3: acidic aqueous solution of the derivative (Y) • Test solution (d) for Referential Example 1: acidic aqueous solution of DMA • Test solution (e) for Referential Example 2: acidic aqueous solution of PDMA\nAn NMR measuring tube (manufactured by Kanto Chemical Co., Inc., φ5 mm×7 inch) was filled with each of the test solutions (a) to (e), and ^1H NMR measurement was performed. ^1H NMR was measured immediately after (0 day), 10 days after, 20 days after, and 27 days after the preparation of the test solution. The test solutions were stored at room temperature (25° C.) in a sealed state in which they were placed in the NMR measuring tubes, while being protected from light.\nAttention was paid to 4.4 ppm (1H, q) for DMA, 4.4 ppm (1H, q) for PDMA, 4.3 ppm (1H, dd) for the derivative (X), 4.3 ppm (1H, dd) for the derivative (X′), and 4.3 ppm (1H, dd) for the derivative (Y) in the resulting ^1H NMR spectrum. […] On the other hand, in the case of the test solutions (d) and (e), peaks derived from decomposition products of DMA and PDMA were detected with the lapse of the storage time. The chemical shifts of the peaks were 4.5 ppm (t, 1H) for DMA and 4.5 ppm (1H, t) for PDMA. Thus, from the integrated values, the residual rate of DMA or PDMA after 10, 20, and 27 days was calculated based on the following calculation formula (see Table 1 and FIG. 1):\n(Integrated value of measured compound)/{(integrated value of measured compound)+(integrated value of decomposition product)}×100", "data": [{"smiles": "O=C(O)C(O)CCNC(CCN1CCC1C(=O)O)C(=O)O", "note": "(stereo not shown) [DMA, 2′-deoxymugineic acid]", "values": [{"measurement": "residual rate, lapsed day 0", "value": 100, "unit": "%"}, {"measurement": "residual rate, lapsed day 10", "value": 77.3, "unit": "%"}, {"measurement": "residual rate, lapsed day 20", "value": 68.2, "unit": "%"}, {"measurement": "residual rate, lapsed day 27", "value": 59.3, "unit": "%"}, {"measurement": "stability in an acidic aqueous solution compared with derivatives (X), (X′) and (Y)", "value": "inferior"}]}, {"smiles": "O=C(O)C(O)CCNC(CCN1CCCC1C(=O)O)C(=O)O", "note": "(stereo not shown) [PDMA]", "values": [{"measurement": "residual rate, lapsed day 0", "value": 100, "unit": "%"}, {"measurement": "residual rate, lapsed day 10", "value": 68.4, "unit": "%"}, {"measurement": "residual rate, lapsed day 20", "value": 61.7, "unit": "%"}, {"measurement": "residual rate, lapsed day 27", "value": 55.2, "unit": "%"}, {"measurement": "stability in an acidic aqueous solution compared with derivatives (X), (X′) and (Y)", "value": "inferior"}]}]}
